Reference: patent publication US9737587B2, “Treatment of autism spectrum disorders with ciliary neurotrophic factor peptide mimetic” (The Research Foundation for Mental Hygiene, Inc., priority 2014, dated 2017)
One block for each molecule: values may come before it. No end group written: not given here.

Assays:
mice or rats = details: in vivo
human = human clinical trials; cited from earlier work

- half-life (in vivo): > 6 h
Molecule: VGDGGLFEKKL [Peptide P6, VGDGGLFEKKL]
- adverse effects associated with the full-length protein (CNTF) (mice or rats): does not cause adverse effects associated with the full-length protein

B1: recombinant CNTF: recombinant full-length ciliary neurotrophic factor (protein, UniProt P26441 1-200, looked up)
chain: MAFTEHSPLTPHRRDLCSRSIWLARKIRSDLTALTESYVKHQGLNKNINLDSADGMPVASTDQWSELTEAERLQENLQAYRTFHVLLARLLEDQQVHFTPTEGDFHQAIHTLLLQVAAFAYQIEELMILLEYKIPRNEADGMPINVGDGGLFEKKLWGLKVLQELSQWTVRSIHDLRFISSHQTGIPARGSHYIANNKKM
modifications: full-length
notes: recombinant full-length ciliary neurotrophic factor
- adverse effects (human): anorexia, skeletal muscle loss, hyperalgesia, severe cramps, and muscle pain
